Measurements as given in US20110318375A1, “Immunomodulatory Therapeutic Agents” (priority 2009, published 2011).
“Also recorded” adds a separate entry of the source. No end group written: not given here. PEG = not defined here

Experiments:
[1] = test system: Experimental Allergic Encephalomyelitis (EAE); test: Acute Experimental Allergic Encephalomyelitis mouse model; format: in vivo, mice; conditions: subcutaneous, dosed daily, every 3 days and weekly
Text: The carboxy terminus of activated Fibrinopeptide A was considered to be the active portion of the peptide, the carboxy terminus was PEGylate (addition of Poly Ethylene Glycol). This molecule was used to perform an EAE study. This study was designed to mimic the study done by Ruhenstroth-Bauer in 1981 utilizing two of these peptides, and showing some albeit mild benefit. The synthetic PEGylated peptide was expected to perform considerably better than the non-PEGylated peptide. Synthetic non-PEGylated peptide A was used as a positive control to compare the PEGylated verses non-PEGylated peptides. The medications were administered subcutaneously, due to this route having some efficacy in the cytokine profiles.
Test article 2 (PEGylated peptide) dosed daily, every 3 days and weekly never even approached statistically significant benefit.
During the first 22 days of the study EAE development in mice treated with test article 1 (daily non-PEGylated peptide A) was very similar to the vehicle-treated mice. […] Disease worsened in test article 1-treated mice on days 27 and 28 and became very similar to disease severity to the mice in the vehicle-treated group.

Ponto Toro Virus = format: in vivo, mice; conditions: mouse, in vivo
cytokine panels = test: Cytokine panels for 24 hours after synthetic imf-C3, healthy volunteer; format: in vivo, human; conditions: followed for 24 hours
Description: After getting back the results of the Ponto Toro test and seeing no results from imf-C3, a healthy volunteer was given synthetic imf-C3 and cytokine panels were followed for 24 hours.

Substance | EAE development / activity versus vehicle-treated mice [1] | EAE development / activity versus vehicle-treated mice ([1]; listed as PEGylated Fibrinopeptide A) | results of the Ponto Toro test (Ponto Toro Virus) | changes in cytokine panels (cytokine panels)
PEGylated peptide: activated Fibrinopeptide A with Poly Ethylene Glycol added to the carboxy terminus (ADSGEGDFLAEGGGVR-{PEG}; reading uncertain; UniProt P02671 20-35, looked up) | little or no response; also recorded: no activity | decrease any measurable activity |  | 
SEETKENERFTV [imf-C3] |  |  | no results | did not demonstrate in any changes
